Laboratory results reported in patent US9994617B2, “Modulation of structured polypeptide specificity” (BICYCLE THERAPEUTICS LIMITED, priority 2011, dated 2018).
Numbered stars: 1 amine (or outer) side, 2 acyl side, 3 side chain; on linkers, the order of the positions; unused ones are H or OH. Bridge positions count the residues as written; N and C are the ends. Square brackets hold non-standard residues; d marks the D form. Peptide text beside a SMILES is read from it. TBMB = c1c(C[*:1])cc(C[*:3])cc1C[*:2]; NMeS = CN[C@@H](CO)C(=O)O; NMeA = CN[C@@H](C)C(=O)O

Target: human plasma kallikrein (hPK) (Homo sapiens, UniProt P03952)
Assay: Enzyme inhibition assay, human plasma kallikrein
Settings: for fold reduction in affinity to kallikrein compared to wildtype peptide: versus Ac-06-34-18(TMB)-NH2

CC(=O)N[C@H]1CSCc2cc3cc(c2)CSC[C@H](NC(=O)C[C@H](CCCNC(=N)N)NC(=O)[C@H](C)NC(=O)[C@@H]2CCCN2C(=O)[C@H](Cc2c[nH]c4ccccc24)NC(=O)[C@H](CO)NC1=O)C(=O)N[C@@H](CC(C)C)C(=O)N[C@@H](Cc1c[nH]cn1)C(=O)N[C@@H](CCC(N)=O)C(=O)N[C@@H](CC(=O)O)C(=O)N[C@@H](CC(C)C)C(=O)N[C@H](C(N)=O)CSC3 [Ac-(06-34-18) βhomoArg5]
Ki: 8.2 nM

CC(=O)N[C@H]1CSCc2cc3cc(c2)CSC[C@H](NC(=O)[C@H](CCCNC(=N)N)NC(=O)[C@@H](C)NC(=O)[C@@H]2CCCN2C(=O)[C@H](Cc2c[nH]c4ccccc24)NC(=O)[C@H](CO)NC1=O)C(=O)N[C@@H](CC(C)C)C(=O)N[C@@H](Cc1c[nH]cn1)C(=O)N[C@@H](CCC(N)=O)C(=O)N[C@@H](CC(=O)O)C(=O)N[C@@H](CC(C)C)C(=O)N[C@H](C(N)=O)CSC3 [Ac-(06-34-18) D-Ala4]
Ki: 1200 nM | fold reduction in affinity to kallikrein compared to wildtype peptide: 7000 fold

CC(=O)N[C@H]1CSCc2cc3cc(c2)CSC[C@H](NC(=O)[C@H](CCNC(=N)N)NC(=O)[C@H](C)NC(=O)[C@@H]2CCCN2C(=O)[C@H](Cc2c[nH]c4ccccc24)NC(=O)[C@H](CO)NC1=O)C(=O)N[C@@H](CC(C)C)C(=O)N[C@@H](Cc1c[nH]cn1)C(=O)N[C@@H](CCC(N)=O)C(=O)N[C@@H](CC(=O)O)C(=O)N[C@@H](CC(C)C)C(=O)N[C@H](C(N)=O)CSC3 [Ac-(06-34-18) Agb5]
Ki: 83 nM

CC(=O)N[C@H]1CSCc2cc3cc(c2)CSC[C@H](NC(=O)[C@H](CCCNC(=N)N)NC(=O)[C@H](C)N(C)C(=O)[C@@H]2CCCN2C(=O)[C@H](Cc2c[nH]c4ccccc24)NC(=O)[C@H](CO)NC1=O)C(=O)N[C@@H](CC(C)C)C(=O)N[C@@H](Cc1c[nH]cn1)C(=O)N[C@@H](CCC(N)=O)C(=O)N[C@@H](CC(=O)O)C(=O)N[C@@H](CC(C)C)C(=O)N[C@H](C(N)=O)CSC3 [Ac-(06-34-18) NMeAla4] (Ac-CSWP[NMeA]RCLHQDLC-NH2; linker 1-7-13 via TBMB)
Ki: 343 nM

CC(C)[C@@H]1NC(=O)[C@H](CCCNC(=N)N)NC(=O)[C@@H]2CSCc3cc(cc(c3)CSC[C@@H](C(=O)N[C@@H](C)C(N)=O)NC(=O)[C@H](CC(N)=O)NC1=O)CSC[C@H](NC(=O)[C@H](C)N)C(=O)N[C@@H](Cc1ccccc1)C(=O)N[C@@H](Cc1ccc(O)cc1)C(=O)N[C@@H](CCCCN)C(=O)N2 [Peptide 06-71] (H-ACFYKCRVNCA-NH2; linker 2-6-10 via TBMB)
Ki: 15.2 nM

CC[C@H](C)[C@@H]1NC(=O)[C@H](C(C)C)NC(=O)[C@H](CCCNC(=N)N)NC(=O)[C@@H]2CSCc3cc(cc(c3)CSC[C@@H](C(=O)N[C@@H](C)C(N)=O)NC1=O)CSC[C@H](NC(=O)[C@H](C)N)C(=O)N[C@@H](Cc1ccccc1)C(=O)N[C@@H](CC(=O)O)C(=O)N1CCC[C@H]1C(=O)N2 [Peptide 3B9] (H-ACFDPCRVICA-NH2; linker 2-6-10 via TBMB)
Ki: 90.8 nM

CC(=O)N[C@H]1CSCc2cc3cc(c2)CSC[C@H](NC(=O)[C@H](CCCNC(=N)N)NC(=O)[C@H](C)NC(=O)[C@H]2CCCN2C(=O)[C@H](Cc2c[nH]c4ccccc24)NC(=O)[C@H](CO)NC1=O)C(=O)N[C@@H](CC(C)C)C(=O)N[C@@H](Cc1c[nH]cn1)C(=O)N[C@@H](CCC(N)=O)C(=O)N[C@@H](CC(=O)O)C(=O)N[C@@H](CC(C)C)C(=O)N[C@H](C(N)=O)CSC3 [Ac-(06-34-18) D-Pro3]
Ki: 680 nM

CC(C)C[C@@H]1NC(=O)[C@H](CCC(=O)O)NC(=O)[C@H](CCCNC(=N)N)NC(=O)[C@H]([C@@H](C)O)NC(=O)[C@H](CC(C)C)NC(=O)[C@@H]2CSCc3cc(cc(c3)CSC[C@@H](C(=O)N[C@@H](C)C(N)=O)NC1=O)CSC[C@H](NC(=O)[C@H](C)N)C(=O)N[C@@H](C)C(=O)N[C@@H](Cc1c[nH]c3ccccc13)C(=O)N1CCC[C@H]1C(=O)N[C@@H](C)C(=O)N[C@@H](CCCCN)C(=O)N2 [Peptide 1B1] (H-ACAWPAKCLTRELCA-NH2; linker 2-8-14 via TBMB)
Ki: 8.1 nM

CC(=O)N[C@H]1CSCc2cc3cc(c2)CSC[C@H](NC(=O)[C@H](Cc2ccc(NC(=N)N)cc2)NC(=O)[C@H](C)NC(=O)[C@@H]2CCCN2C(=O)[C@H](Cc2c[nH]c4ccccc24)NC(=O)[C@H](CO)NC1=O)C(=O)N[C@@H](CC(C)C)C(=O)N[C@@H](Cc1c[nH]cn1)C(=O)N[C@@H](CCC(N)=O)C(=O)N[C@@H](CC(=O)O)C(=O)N[C@@H](CC(C)C)C(=O)N[C@H](C(N)=O)CSC3 [Ac-(06-34-18) 4GuanPhe5]
Ki: 0.3 nM | fold reduction in affinity to kallikrein compared to wildtype peptide: 2 fold

CC(=O)N[C@H]1CSCc2cc3cc(c2)CSC[C@H](NC(=O)[C@H](CCCNC(=N)N)NC(=O)[C@@H]2CCCN2C(=O)[C@H](CO)NC(=O)[C@H](C)NC(=O)[C@H](Cc2c[nH]c4ccccc24)NC1=O)C(=O)N[C@@H](CC(C)C)C(=O)N[C@@H](Cc1c[nH]cn1)C(=O)N[C@@H](CCC(N)=O)C(=O)N[C@@H](CC(=O)O)C(=O)N[C@@H](CC(C)C)C(=O)N[C@H](C(N)=O)CSC3 [Ac-(06-34-18) Scram2] (Ac-CWASPRCLHQDLC-NH2; linker 1-7-13 via TBMB)
Ki: 11400 nM

CC(=O)N[C@H]1CSCc2cc3cc(c2)CSC[C@H](NC(=O)[C@H](CCCNC(=N)N)NC(=O)[C@H](C)NC(=O)[C@H](C)NC(=O)[C@H](C)NC(=O)[C@H](CO)NC1=O)C(=O)N[C@@H](CC(C)C)C(=O)N[C@@H](Cc1c[nH]cn1)C(=O)N[C@@H](CCC(N)=O)C(=O)N[C@@H](CC(=O)O)C(=O)N[C@@H](CC(C)C)C(=O)N[C@H](C(N)=O)CSC3 [Ac-(06-34-18) A2A3] (Ac-CSAAARCLHQDLC-NH2; linker 1-7-13 via TBMB)
Ki: 18500 nM

CC(=O)N[C@H]1CSCc2cc3cc(c2)CSC[C@H](NC(=O)[C@H](CCCNC(N)=O)NC(=O)[C@H](C)NC(=O)[C@@H]2CCCN2C(=O)[C@H](Cc2c[nH]c4ccccc24)NC(=O)[C@H](CO)NC1=O)C(=O)N[C@@H](CC(C)C)C(=O)N[C@@H](Cc1c[nH]cn1)C(=O)N[C@@H](CCC(N)=O)C(=O)N[C@@H](CC(=O)O)C(=O)N[C@@H](CC(C)C)C(=O)N[C@H](C(N)=O)CSC3 [Ac-(06-34-18) CitS]
Ki: 7860 nM

CC(C)[C@@H]1NC(=O)[C@H](CCCNC(=N)N)NC(=O)[C@@H]2CSCc3cc(cc(c3)CSC[C@@H](C(=O)N[C@@H](C)C(N)=O)NC(=O)[C@H](CC(N)=O)NC1=O)CSC[C@H](NC(=O)[C@H](C)N)C(=O)N[C@@H](Cc1ccccc1)C(=O)N[C@@H](CC(N)=O)C(=O)N[C@@H](CCCCN)C(=O)N2 [Peptide 06-64] (H-ACFNKCRVNCA-NH2; linker 2-6-10 via TBMB)
Ki: 4.8 nM

CC(=O)N[C@H]1CSCc2cc3cc(c2)CSC[C@H](NC(=O)[C@H](CCCNC(=N)N)NC(=O)[C@H](C)N(C)C(=O)[C@@H]2CCCN2C(=O)[C@H](Cc2c[nH]c4ccccc24)NC(=O)[C@H](CO)N(C)C1=O)C(=O)N[C@@H](CC(C)C)C(=O)N[C@@H](Cc1c[nH]cn1)C(=O)N[C@@H](CCC(N)=O)C(=O)N[C@@H](CC(=O)O)C(=O)N[C@@H](CC(C)C)C(=O)N[C@H](C(N)=O)CSC3 [Ac-(06-34-18) NMeSer1, NMeAla4] (Ac-C[NMeS]WP[NMeA]RCLHQDLC-NH2; linker 1-7-13 via TBMB)
Ki: 444 nM
